These results are taken from publication PMC6155299, “Synthesis and Evaluation of New Pyrazoline Derivatives as Potential Anticancer Agents in HepG-2 Cell Line” (Molecules : A Journal of Synthetic Chemistry and Natural …, 2017).

Data set [1] has as its system HepG-2 cells. Kind of data set: MTT assay, cytotoxic effects on HepG-2 cells. To be noted: 48 h. In kind it is cell-based, human. As to the method: (§1) Primary hepatocytes were isolated from male SD rats weighing 250–300 g using a modified in situ collagenase perfusion method and then the cells were cultured in Dulbecco’s Modified Eagle’s Medium (DMEM) with 2 g/L bovine serum albumin (BSA) and 50 mg/L gentamicin. HepG-2 cells were incubated in RPMI 1640 medium supplemented with 10% fetal bovine serum (FBS) and 1% penicillin–streptomycin liquid. Cells were incubated at 37 °C in a humidified atmosphere of 95% air and 5% CO2. Stock solutions of compounds and cisplatin were prepared in dimethyl sulfoxide (DMSO), then added to fresh culture medium to obtain final concentrations.
Next, compounds b14 and b18 were prepared in five different concentrations (20 µM, 40 µM, 60 µM, 80 µM, 100 µM), and compounds b15, b16, and b17, along with cisplatin, were prepared in seven different concentrations (2.5 µM, 5 µM, 7.5 µM, 10 µM, 20 µM, 40 µM, 60 µM). A suspension of growing cells (50,000/mL) was prepared, and 100 µL/well dispensed into 96-well plates, yielding a density of 5000 cells/well. The cells were incubated for 24 h before adding the pyrazoline derivatives. The optimal cell number for cytotoxicity assays was determined in preliminary experiments. At the end of the incubation period, the medium was removed and 100 µL of different concentrations of pyrazoline derivatives were added to wells for 24 h and 48 h. Following the exposure period, 20 µL of MTT (5 mg/mL) were added to cells and incubated for a further 4 h at 37 °C. The medium was removed and the formazan crystals were solubilized by adding 150 µL DMSO to each well. After 10 min of shaking, the absorbance was measured at 550 nm using a FilterMax F5 Multi-Mode Microplate Reader (Energy Chemical, Shanghai, China). Cells were treated with each compound with four replicates per concentration, and each experiment was conducted at least three times. Dose–inhibition rate curves and IC50 values, defined as the drug concentrations which reduced absorbance to 50% of control values, were then generated.
(In general: Tetrazolium assays rely on reduction of a dye to a coloured formazan, in cell work by metabolically active cells.)

For data set [2], the system named is primary hepatocytes. Briefly: MTS assay, cytotoxicity against primary hepatocytes. To be noted: for IC50: Rattus norvegicus, Hepatocyte, 48 h; for cytotoxicity against primary hepatocytes (in words): compared with HepG-2. In kind it is cell-based, rat. On the procedure:
as §1
The cytotoxicological activity of compounds b5, b9, and b14–18 were evaluated against primary hepatocytes using the MTS assay (Cell Titer 96® Aqueous Cell Proliferation Assay, Promega, Cat. No. G5421) as a fast and sensitive quantification of cell proliferation and viability. The concentrations of compounds were prepared in seven different concentrations (2.5 µM, 5 µM, 10 µM, 20 µM, 40 µM, 80 µM, 160 µM). Cells were seeded into 96-well plates at a density of 26,000 cells/well. The plates were incubated for 24 h prior to any treatment. At the end of this period, the medium was removed and 100 µL of different concentrations of pyrazoline derivatives were added to wells for 48 h. Following the exposure period, 20 μL of the combined MTS/PMS solution was added to cells and incubated for a further 2 h at 37 °C, then the absorbance was recorded at 490 nm using an ELISA Plate Reader (ELISA, Emeryville, CA, USA). The values of IC50, the effective concentration at which 50% of the primary hepatocytes were inhibited, were calculated to evaluate the cytotoxic activities.

Setting [3] is: Homo sapiens, HepG2, HepG-2 cell line, read-out: IC50 HepG-2.
[4] abbreviates: Homo sapiens, HepG2, HepG-2 cells, read-out: IC50 against HepG-2 cells.

Read-outs that look alike come from different tables or passages of the source. Some results are limits rather than exact numbers.

In turn, `COc1cc(C2CC(c3ccccc3O)=NN2c2ccccc2)cc(OC)c1O` (centres unmarked) [b18, 4-[5-(2-Hydroxyphenyl)-2-phenyl-3,4-dihydro-2H-pyrazol-3-yl]-2,6-dimethoxy-phenol] gave a melting point of 169.7 to 170.8 °C. The half-inhibitory concentration (IC50) in data set [1] (setting [3]) was determined as 28.5 ± 1.34 µM. This compound returned an IC50 in data set [2] of 50.7 ± 3.21 µM.
In turn, `COc1cc(C2CC(c3ccccc3O)=NN2S(=O)(=O)c2cccc([N+](=O)[O-])c2)cc(OC)c1O` (centres unmarked) [b7, 4-[5-(2-Hydroxyphenyl)-2-(3-nitro-benzenesulfonyl)-3,4-dihydro-2H-pyrazol-3-yl]-2,6-dimethoxy-phenol] gave a melting point of 131.9 to 133.5 °C. Further, the IC50 in data set [1] (setting [3]) is greater than 50 µM.
In the case of `COc1cc(C2CC(c3ccc([N+](=O)[O-])cc3)=NN2)cc(OC)c1O` (centres unmarked) [b2, 2,6-Dimethoxy-4-[5-(4-nitrophenyl)-3,4-dihydro-2H-pyrazol-3-yl]-phenol], the melting point was in the range of 140.7 to 141.1 °C. In addition, the half-maximal inhibitory concentration (IC50) in data set [1] (setting [3]) is greater than 50 µM.
The compound `COc1cc(C2CC(c3ccccc3O)=NN2S(=O)(=O)c2ccccc2)cc(OC)c1O` (centres unmarked) [b5, 4-[2-Benzenesulfonyl-5-(2-hydroxyphenyl)-3,4-dihydro-2H-pyrazol-3-yl]-2,6-dimethoxy-phenol] showed a melting point of 163.1 to 164.4 °C. In addition, in data set [1] (setting [3]), the IC50 was found to be 28.8 ± 1.32 µM. For the same compound, the half-inhibitory concentration (IC50) in data set [1] (setting [4]) was less than 50 µM. In data set [2], the concentration for half-maximal inhibition (IC50) was 35.1 ± 2.21 µM and the “cytotoxicity against primary hepatocytes (in words)” value is recorded as “lower cytotoxicological activity”.
`COc1cc(C2CC(c3ccc([N+](=O)[O-])cc3)=NN2)cc(Br)c1O` (centres unmarked) [b4, 2-Bromo-6-methoxy-4-[5-(4-nitrophenyl)-3,4-dihydro-2H-pyrazol-3-yl]-phenol]: the melting point is 208.6 to 208.9 °C. The IC50 in data set [1] (setting [3]) is greater than 50 µM.
In turn, `COc1cc(C2CC(c3ccccc3O)=NN2S(=O)(=O)c2ccc([N+](=O)[O-])cc2)cc(OC)c1O` (centres unmarked) [b8, 4-[5-(2-Hydroxyphenyl)-2-(4-nitro-benzenesulfonyl)-3,4-dihydro-2H-pyrazol-3-yl]-2,6-dimethoxy-phenol] showed a melting point of 195.5 to 197 °C. In addition, the IC50 in data set [1] (setting [3]) was greater than 50 µM.
In turn, `COc1cc(C2CC(c3ccccc3O)=NN2)cc(Br)c1O` (centres unmarked) [b3, 2-Bromo-4-[5-(2-hydroxyphenyl)-3,4-dihydro-2H-pyrazol-3-yl]-6-methoxy-phenol] displayed a melting point of 181.8 to 183.9 °C. Moreover, the IC50 in data set [1] (setting [3]) is greater than 50 µM.
The compound `COc1cc(C2CC(c3ccccc3O)=NN2C(=O)c2ccc([N+](=O)[O-])cc2)cc(OC)c1O` (centres unmarked) [b12, [5-(4-Hydroxy-3,5-dimethoxyphenyl)-3-(2-hydroxyphenyl)-4,5-dihydro-pyrazol-1-yl]-(4-nitrophenyl)-methanone] registered a melting point of 250.1 to 251.2 °C. In addition, the IC50 in data set [1] (setting [3]) is greater than 50 µM.
As for `COc1cc(C2CC(c3ccccc3O)=NN2C(=O)c2ccccc2[N+](=O)[O-])cc(OC)c1O` (centres unmarked) [b10, [5-(4-Hydroxy-3,5-dimethoxyphenyl)-3-(2-hydroxyphenyl)-4,5-dihydro-pyrazol-1-yl]-(2-nitrophenyl)-methanone], the melting point lay in the range of 194.6 to 194.7 °C. In addition, the concentration for half-maximal inhibition (IC50) in data set [1] (setting [3]) was greater than 50 µM.
Compound `COc1cc(C2CC(c3ccccc3O)=NN2S(=O)(=O)c2ccc(C)cc2)cc(OC)c1O` (centres unmarked) [b9, 4-[5-(2-Hydroxyphenyl)-2-(toluene-4-sulfonyl)-3,4-dihydro-2H-pyrazol-3-yl]-2,6-dimethoxy-phenol] displayed a melting point of 194.6 to 194.7 °C. Moreover, the IC50 in data set [1] (setting [3]) stood at 12 ± 1.83 µM. Besides, in data set [1] (setting [4]), the concentration for half-maximal inhibition (IC50) is less than 50 µM. In data set [2], the half-maximal inhibitory concentration (IC50) was determined as 29.7 ± 2.43 µM and the “cytotoxicity against primary hepatocytes (in words)” value is on record as “lower cytotoxicological activity”.
As to `COc1cc(C2CC(c3ccccc3O)=NN2C(=O)c2ccc3ccccc3c2)cc(OC)c1O` (centres unmarked) [b14, [5-(4-Hydroxy-3,5-dimethoxyphenyl)-3-(2-hydroxyphenyl)-4,5-dihydro-pyrazol-1-yl]-naphthalen-2-yl-methanone], the melting point fell in the range of 185.5 to 186.5 °C. Besides, in data set [1] (setting [3]), the half-inhibitory concentration (IC50) was 18 ± 1.37 µM. This compound also returned an IC50 in data set [2] of 22.7 ± 1.21 µM.
As for `N.N.[Cl][Pt][Cl]` [Cisplatin, cisplatin, reference compound], in data set [1] (HepG-2 cell line, read-out: IC50 HepG-2), the IC50 was 8.45 ± 1.05 µM.
`COc1cc(C2CC(c3ccccc3O)=NN2S(=O)(=O)c2ccccc2[N+](=O)[O-])cc(OC)c1O` (centres unmarked) [b6, 4-[5-(2-Hydroxyphenyl)-2-(2-nitro-benzenesulfonyl)-3,4-dihydro-2H-pyrazol-3-yl]-2,6-dimethoxy-phenol]: the melting point fell in the range of 151.1 to 152.8 °C. Moreover, the half-inhibitory concentration (IC50) in data set [1] (setting [3]) was greater than 50 µM.
Consider `COc1cc(C2CC(c3ccccc3O)=NN2C(=O)c2cccs2)cc(OC)c1O` (centres unmarked) [b15, [5-(4-Hydroxy-3,5-dimethoxyphenyl)-3-(2-hydroxyphenyl)-4,5-dihydro-pyrazol-1-yl]-thiophen-2-yl-methanone], for which the melting point fell in the range of 196.1 to 197.2 °C. Moreover, the IC50 in data set [1] (setting [3]) was determined as 4.51 ± 1.49 µM. In addition, the IC50 in data set [2] amounted to 19.24 ± 0.08 µM.
For the compound `COc1cc(C2CC(c3ccccc3O)=NN2)cc(OC)c1O` (centres unmarked) [b1, 4-[5-(2-Hydroxyphenyl)-3,4-dihydro-2H-pyrazol-3-yl]-2,6-dimethoxy-phenol], the melting point is 140.3 to 140.7 °C. Moreover, the IC50 in data set [1] (setting [3]) was greater than 50 µM.
Take `COc1cc(C2CC(c3ccccc3O)=NN2C(=O)c2cc([N+](=O)[O-])cc([N+](=O)[O-])c2)cc(OC)c1O` (centres unmarked) [b13, (3,5-Dinitrophenyl)-[5-(4-hydroxy-3,5-dimethoxyphenyl)-3-(2-hydroxyphenyl)-4,5-dihydro-pyrazol-1-yl]-methanone]: the melting point fell in the range of 240.4 to 240.9 °C. Further, in data set [1] (setting [3]), the 50% inhibitory concentration (IC50) was greater than 50 µM.
As for `COc1cc(C2CC(c3ccccc3O)=NN2C(=O)c2cccc([N+](=O)[O-])c2)cc(OC)c1O` (centres unmarked) [b11, [5-(4-Hydroxy-3,5-dimethoxyphenyl)-3-(2-hydroxyphenyl)-4,5-dihydro-pyrazol-1-yl]-(3-nitrophenyl)-methanone], the melting point was in the range of 207.7 to 209.3 °C. Besides, the IC50 in data set [1] (setting [3]) was greater than 50 µM.
On the same counts, the results for `COc1cc(C2CC(c3ccc(C)cc3)=NN2c2ccccc2)cc(OC)c1OC` (centres unmarked) [b19, 1-Phenyl-3-p-tolyl-5-(3,4,5-trimethoxyphenyl)-4,5-dihydro-1H-pyrazole] are 137.9 to 140.3 °C and greater than 50 µM.
For the compound `COc1cc(C2CC(c3ccccc3O)=NN2C(=O)c2ccco2)cc(OC)c1O` (centres unmarked) [b16, Furan-2-yl-[5-(4-hydroxy-3,5-dimethoxyphenyl)-3-(2-hydroxyphenyl)-4,5-dihydro-pyrazol-1-yl]-methanone], the melting point is 201.1 to 203.7 °C. Besides, the IC50 in data set [1] (setting [3]) came out at 4.61 ± 1.27 µM. In data set [2], this compound returned a 50% inhibitory concentration (IC50) of 20.7 ± 1.72 µM.

The IC50 is the concentration that gives 50% inhibition. By melting point is commonly meant the temperature of the solid-liquid transition.
